Measured values published in publication PMC6642116, “Structural and functional analyses of hepatitis B virus X protein BH3-like domain and Bcl-xL interaction” (Nature Communications, 2019).

System: HBV in HepG2-NTCP cells
Assay: Inhibition of HBV infection in HepG2-NTCP cells by HBx118–127
Assay type: cell-based
Conditions: unrelated control peptide, MOI 200, day 8
Description: We took advantage of the structural information of the HBx-aa113–135/Bcl-xL complex to develop potential HBV inhibitors. […] BH3-only mimetics, […] and ABT-737, were included as controls. […] We also used HBV-infected HepG2-NTCP cells to evaluate the inhibitory effect of the HBx-aa118–127 peptide on HBV replication, by treating the cells with the peptide at 12.5, 50, and 200 µg/ml concentrations, respectively.
Cytoplasmic HBV viral particles were isolated and the viral DNA replication intermediates were quantified (Methods). […] The lysate was analyzed by immunoblotting using antibodies to caspase-3 (CASP3) and GAPDH (glyceraldehyde 3-phosphate dehydrogenase). c, d The HBx-aa113–135, HBx-aa118–127, or the control peptides were delivered into HepG2.2.15 cells using PEP-1 nanoparticles (Methods). The levels of HBV DNA (c) and the levels of HBV S-antigen (HBsAg) expression (d) in culture medium collected from HepG2.2.15 cells were measured (Methods). […] Data shown represent mean ± SD. Significance is indicated on the top. Not significant (ns): *P < 0.05, **P < 0.01; two-tailed unpaired t tests (n = 3 biologically independent samples). Source data are provided as a Source Data file
The levels of HBsAg, HBeAg, and HBcAg expression were measured by chemiluminescence, using Commercial Assay Kit (Wantai, Beijing, China). Northern blot analysis of HBV RNA, Southern blot analysis of HBV DNA, and real-time PCR quantification of HBV DNA are described in the Supplementary Methods.

Substance: SSTTSTGPCKTCTTPAQGTSMFP-K-biotin [Control, equal-length unrelated control biotin-labeled peptide]
- HBV DNA, HepG2-NTCP cell (replicate 1): 0.996 fold-change to control
- HBeAg, HepG2-NTCP cell (replicate 1): 1.091 fold-change to control
- HBV DNA, HepG2-NTCP cell (replicate 2): 0.822 fold-change to control
- HBeAg, HepG2-NTCP cell (replicate 2): 1.003 fold-change to control
- HBV DNA, HepG2-NTCP cell (replicate 3): 1.182 fold-change to control
- HBeAg, HepG2-NTCP cell (replicate 3): 0.906 fold-change to control
